# Assay results from patent publication US11752111B2, “Use of cannabidivarin in the treatment of autism spectrum disorder, associated disorders and schizophrenia” (GW Research Limited, priority 2016, dated 2023).
# “Also recorded” adds a separate entry of the source. Where two headings read alike, the source gives them in different places.
# Experiments:
# Fmr1 KO mice = assay: Audiogenic seizure susceptibility, Fmr1 KO (FXS) mice; format: in vivo, mouse; conditions: for audiogenic seizures: FXS mice PND21
# Description: This trait was evaluated in PND21 mice after acute administration of the compounds or its vehicle, 30 min before starting the procedure. To measure audiogenic seizure sensitivity mice were placed individually into a novel environment, a glass cylinder (40 cm high, 16 cm diameter) and allowed to explore for 1 min. Next, a bell (100 dB) was rung for 30 sec and seizure activity scored according to the following scale: no response, 0; wild running, 1; clonic seizure, 2; tonic seizure, 3; status epilepticus/respiratory arrest/death, 4.
# On postnatal day 21 (PND21) WT and Fmr1 KO mice were injected with CBDV (2, 10, 20 or 100 mg/kg) or vehicle, 30 min before exposure to a bell ring (100 dB). Mice exposed to this noise for 30 sec ceased from their normal exploratory behaviour and reacted with gradually to wild-running, clonic seizure, tonic seizure or death. The maximum response was annotated for each mouse as detailed in Table 2 below. A score was calculated according to the severity of the symptoms as explained in the Methods section.
# MeCP2 KO mice [1] = assay: Survival in Rett syndrome model; format: in vivo, mouse
# Description: (§1) CBDV was administered daily at the dose of 2, 20 and 200 mg/kg i.p. starting from PND 28 and the following signs were scored every other day: hindlimb clasping (indication of motor imbalance), tremor, gait (measure of coordination), breathing, mobility and general condition.
# (§2) Starting from PND 28, mice received a daily intraperitoneal injection of CBDV (or vehicle) at the dose of 2, 20 and 200 mg/kg. Animals were then scored every other day to evaluate the effect of CBDV treatment on motor symptoms (hindlimb clasping, gait, mobility) as well as neurological signs and general conditions (breathing abnormalities, tremors and general condition) present in MeCP2 knockout (KO) mice.
# animal models of seizure = conditions: in vivo; cited from earlier work
# MeCP2 KO mice [2] = assay: Symptom scoring in Rett syndrome model; format: in vivo, mouse
# Description: as §1, §2
# Each of the six symptoms was scored from 0 to 2 (0 corresponds to the symptom being absent or the same as in the wild type (WT) animal; 1 when the symptom was present; 2 when the symptom was severe).
# Mobility: the mouse is observed when placed on bench, then when handled gently. 0=as WT. 1=reduced movement when compared with WT: extended freezing period when first placed on bench and longer periods spent immobile. 2=no spontaneous movement when placed on the bench; mouse can move in response to a gentle prod or a food pellet placed nearby.
# Gait: 0=as WT. 1=hind legs are spread wider than WT when walking or running with reduced pelvic elevation, resulting in a ‘waddling’ gait. 2=more severe abnormalities: tremor when feet are lifted, walks backward or ‘bunny hops’ by lifting both rear feet at once.
# Hindlimb clasping: mouse observed when suspend by holding base of the tail. 0=legs splayed outward. 1=hindlimbs are drawn toward each other (without touching) or one leg is drawn into the body. 2=both legs are pulled in tightly, either touching each other or touching the body.
# Tremor: mouse observed while standing on the flat palm of the hand. 0=no tremor. 1=intermittent mild tremor. 2=continuous tremor or intermittent violent tremor.
# Breathing: movement of flanks observed while animal is standing still. 0=normal breathing. 1=periods of regular breathing interspersed with short periods of more rapid breathing or with pauses in breathing. 2=very irregular breathing-gasping or panting.
# General condition: mouse observed for indicators of general well-being such as coat condition, eyes and body stance. 0=clean shiny coat, clear eyes, and normal stance. 1=eyes dull, coat dull/un-groomed, and somewhat hunched stance. 2=eyes crusted or narrowed, piloerection, and hunched posture.
# [3] = system: GFAP, CD11b, TNFα expression in the hippocampus; assay: Neuroinflammation studies, hippocampus protein expression by Western blotting, prenatal VPA model; format: in vivo, rat
# Description: At the end of the study, on PND 59, male rats treated with CBDV 20 mg/kg i.p. were sacrificed and the hippocampus was collected 24 hours after the last CBDV injection and stored at −80° C. for evaluation of changes in protein expression of components of the endocannabinoid system (CB1 and CB2 receptors, the endocannabinoid degrading enzymes, FAAH and MAGL and the synthetic enzymes, DAGLα and NAPE-PLD); neuroinflammatory markers (GFAP (astrocytic marker), Iba1 (microglial marker), CD11b (activated microglial marker), TNF-α (proinflammatory cytokine) and iNOS (inflammatory mediator)); synaptic markers (Synaptophysin (synaptic vesicle protein), PSD-95 (post synaptic density protein) and the neurotrophins, BDNF and IGF by Western blotting.
# Ube3am-/p+ (AS) mice = assay: Audiogenic seizure susceptibility in Angelman syndrome model; format: in vivo, mouse
# Description: Heterozygous mice with maternal deficiency of Ube3A (Ube3am−/p+) and wild type (Ube3am+/p+) were purchased from The Jackson Laboratory (Jackson code: B6.129S7-Ube3a tm1Alb/J) and maintained in a C57BL/6 background.
# For the audiogenic seizure tests CBDV was administered at 20, 200 and 400 mg/kg.
# Seizure susceptibility: Audiogenic seizures were induced by vigorously scraping scissors across the metal grating of the cage lid which produces a 100 DB high frequency loud noise. This was done for 20 seconds. This test consists of 3 phases. In phase 1 all mice were tested for epilepsy. In phase 2 all mice were injected daily with either vehicle or a drug for 7 or 10 days. In phase 3 mice were tested for epilepsy (one hour after last injection).
# [4] = FXS (Fmr1 KO) PND21, CBDV 2 mg/kg acute, n = 5
# [5] = FXS (Fmr1 KO) PND21, CBDV 10 mg/kg acute, n = 5
# [6] = FXS (Fmr1 KO) PND21, CBDV 20 mg/kg acute, n = 5
# [7] = FXS (Fmr1 KO) PND21, CBDV 100 mg/kg acute, n = 5
smiles,measurement,setting,value
"C=C(C)[C@@H]1CCC(C)=C[C@H]1c1c(O)cc(CCC)cc1O [CBDV, Cannabidivarin]",maximum response: No response (number of mice),Fmr1 KO mice,2
same,maximum response: Clonic seizure (number of mice),Fmr1 KO mice; [4],0
same,maximum response: Death (number of mice),Fmr1 KO mice; [4],0
same,maximum response: Tonic seizure (number of mice),Fmr1 KO mice; [4],2
same,maximum response: Wild running (number of mice),Fmr1 KO mice; [4],1
same,maximum response: Clonic seizure (number of mice),Fmr1 KO mice; [5],0
same,maximum response: Death (number of mice),Fmr1 KO mice; [5],0
same,maximum response: No response (number of mice),Fmr1 KO mice; [5],0
same,maximum response: Tonic seizure (number of mice),Fmr1 KO mice; [5],2
same,maximum response: Wild running (number of mice),Fmr1 KO mice; [5],3
same,maximum response: Clonic seizure (number of mice),Fmr1 KO mice; [6],0
same,maximum response: Death (number of mice),Fmr1 KO mice; [6],0
same,maximum response: No response (number of mice),Fmr1 KO mice; [6],2
same,maximum response: Tonic seizure (number of mice),Fmr1 KO mice; [6],2
same,maximum response: Wild running (number of mice),Fmr1 KO mice; [6],1
same,maximum response: Clonic seizure (number of mice),Fmr1 KO mice; [7],0
same,maximum response: Death (number of mice),Fmr1 KO mice; [7],0
same,maximum response: No response (number of mice),Fmr1 KO mice; [7],5
same,maximum response: Tonic seizure (number of mice),Fmr1 KO mice; [7],0
same,maximum response: Wild running (number of mice),Fmr1 KO mice; [7],0
same,audiogenic seizures,Fmr1 KO mice; acute 100 mg/kg,remained seizure free; also recorded: completely eliminate the seizures
same,audiogenic seizures,"Fmr1 KO mice; acute lower doses (2, 10, 20 mg/kg)",experienced seizures of varying severity
same,survival rate,"MeCP2 KO mice [1]; CBDV 200 mg/kg, PND 67, vehicle 25%",75%
same,survival measured at PND 67 (FIG. 5),"MeCP2 KO mice [1]; all three doses (2, 20, 200 mg/kg)",increase survival
same,efficacy in animal models of seizure,animal models of seizure,effective
same,total symptom score (FIG. 8),"MeCP2 KO mice [2]; 2 mg/kg, PND 45, 47, 49, 55, 56, 57, 58, 60 and 64, KO mice",significantly improved total symptom score at every time point
same,breathing score (FIG. 6B),"MeCP2 KO mice [2]; 2 mg/kg, PND 56 to 60, KO mice",significantly improve breathing
same,tremor score (FIG. 6A),"MeCP2 KO mice [2]; 2 mg/kg, PND 63, KO mice",still protective
same,general conditions (coat and eyes) (FIG. 7A),"MeCP2 KO mice [2]; 20 mg/kg, KO mice",significantly effective only at the earlier time point (PND 52)
same,breathing score (FIG. 6B),"MeCP2 KO mice [2]; 20 mg/kg, PND 57, KO mice",significant effect
same,hindlimb clasping score (FIG. 6C),"MeCP2 KO mice [2]; 200 mg/kg, KO mice",did not significantly affect
same,total symptom score (FIG. 8),"MeCP2 KO mice [2]; 200 mg/kg, KO mice",exerted beneficial effect at a later time point (PND 47) and its protective effect was evident until PND 58
same,gait score (FIG. 6D),"MeCP2 KO mice [2]; 200 mg/kg, PND 53 to 57, KO mice",significantly improved gait
same,tremor score (FIG. 6A),"MeCP2 KO mice [2]; 200 mg/kg, PND 55 and 63, KO mice",still able to reduce tremors
same,breathing score (FIG. 6B),"MeCP2 KO mice [2]; 200 mg/kg, PND 57 and 60, KO mice",effective
same,general conditions (coat and eyes) (FIG. 7A),"MeCP2 KO mice [2]; 2 and 200 mg/kg, PND 52-64, KO mice",significantly improved
same,mobility score (FIG. 7B),MeCP2 KO mice [2]; KO mice,reached statistical significance only at PND 64
same,total symptom score (FIG. 8),"MeCP2 KO mice [2]; all three doses, KO mice vs KO-vehicle",delay and attenuate the appearance of the phenotype
same,tremor score (FIG. 6A),"MeCP2 KO mice [2]; all three doses, PND 45-49, KO mice",significantly delaying and reducing tremors
same,hindlimb clasping score (FIG. 6C),"MeCP2 KO mice [2]; lower doses (2, 20 mg/kg), PND 47 and 49, KO mice",significantly attenuate hindlimb clasping
same,"expression of inflammatory markers that were increased (GFAP, CD11b, TNFα) in hippocampus (FIG. 2D)","[3]; chronic CBDV 20 mg/kg i.p., male VPA-exposed rats",completely normalised
same,expression of inflammatory markers in hippocampus (FIG. 2D),"[3]; chronic CBDV, control rats",no effect
same,"seizure susceptibility, number of mice with seizures vs baseline (FIG. 15)","Ube3am-/p+ (AS) mice; 20 mg/kg or 200 mg/kg, 7 or 10 days treatment",no effect
same,number of mice with seizures (FIG. 15),Ube3am-/p+ (AS) mice; 400 mg/kg,statistically significant decrease
